{"source": "PubChem BioAssay (NCI)", "assay_in_all_cases": "NCI anticancer screen, dose series, 48 h", "key": {"DMS 114 small cell lung": {"tested_on": "DMS 114 small cell lung"}, "NCI-H23 lung": {"tested_on": "NCI-H23 lung"}, "UACC-257 melanoma": {"tested_on": "UACC-257 melanoma"}, "SF-268 CNS": {"tested_on": "SF-268 CNS"}, "XF 498 CNS": {"tested_on": "XF 498 CNS"}, "RPMI-8226 leukemia": {"tested_on": "RPMI-8226 leukemia"}, "MOLT-4 leukemia": {"tested_on": "MOLT-4 leukemia"}, "HCT-116 colon": {"tested_on": "HCT-116 colon"}, "UO-31 renal": {"tested_on": "UO-31 renal"}, "ACHN renal": {"tested_on": "ACHN renal"}, "DLD-1 colon": {"tested_on": "DLD-1 colon"}, "HOP-92 NSCLC": {"tested_on": "HOP-92 NSCLC"}, "TK-10 renal": {"tested_on": "TK-10 renal"}, "SK-MEL-28 melanoma": {"tested_on": "SK-MEL-28 melanoma"}, "LXFL 529 NSCLC": {"tested_on": "LXFL 529 NSCLC"}, "A549 NSCLC": {"tested_on": "A549 NSCLC"}, "SF-539 CNS": {"tested_on": "SF-539 CNS"}, "M14 melanoma": {"tested_on": "M14 melanoma"}, "U251 CNS": {"tested_on": "U251 CNS"}, "KM12 colon": {"tested_on": "KM12 colon"}, "COLO 205 colon": {"tested_on": "COLO 205 colon"}, "OVCAR-5 ovarian": {"tested_on": "OVCAR-5 ovarian"}, "SK-MEL-2 melanoma": {"tested_on": "SK-MEL-2 melanoma"}, "NCI-H522 lung": {"tested_on": "NCI-H522 lung"}, "K-562 leukemia": {"tested_on": "K-562 leukemia"}, "HT29 colon": {"tested_on": "HT29 colon"}, "SNB-75 CNS": {"tested_on": "SNB-75 CNS"}, "EKVX NSCLC": {"tested_on": "EKVX NSCLC"}, "SF-295 CNS": {"tested_on": "SF-295 CNS"}, "HCC-2998 colon": {"tested_on": "HCC-2998 colon"}, "HCT-15 colon": {"tested_on": "HCT-15 colon"}, "OVCAR-8 ovarian": {"tested_on": "OVCAR-8 ovarian"}, "MALME-3M melanoma": {"tested_on": "MALME-3M melanoma"}, "NCI-H460 lung": {"tested_on": "NCI-H460 lung"}, "CCRF-CEM leukemia": {"tested_on": "CCRF-CEM leukemia"}, "M19-MEL melanoma": {"tested_on": "M19-MEL melanoma"}, "OVCAR-4 ovarian": {"tested_on": "OVCAR-4 ovarian"}, "SK-OV-3 ovarian": {"tested_on": "SK-OV-3 ovarian"}, "NCI-H226 lung": {"tested_on": "NCI-H226 lung"}, "DMS 273 small cell lung": {"tested_on": "DMS 273 small cell lung"}, "HL-60(TB) leukemia": {"tested_on": "HL-60(TB) leukemia"}, "SN12C renal": {"tested_on": "SN12C renal"}, "HOP-18 NSCLC": {"tested_on": "HOP-18 NSCLC"}, "SNB-78 CNS": {"tested_on": "SNB-78 CNS"}, "786-0 renal": {"tested_on": "786-0 renal"}, "OVCAR-3 ovarian": {"tested_on": "OVCAR-3 ovarian"}}, "note": "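Dose response: 5 concentrations. Exposure: 48 h. Format: 96-well plates. Endpoint: linear interpolation; highest concentration if not reached. TGI is the concentration that stops growth completely.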", "data": [{"smiles": "O=C1C=CC(=O)c2c1ccc1c3ccccc3n(-c3ccccn3)c21", "values": [{"measurement": "TGI", "setting": "DMS 114 small cell lung", "result": 40.2, "unit": "µM"}, {"measurement": "TGI", "setting": "NCI-H23 lung", "result": "> 100", "unit": "µM"}, {"measurement": "TGI", "setting": "UACC-257 melanoma", "result": 37.3, "unit": "µM"}, {"measurement": "TGI", "setting": "SF-268 CNS", "result": "> 100", "unit": "µM"}, {"measurement": "TGI", "setting": "XF 498 CNS", "result": 29.3, "unit": "µM"}, {"measurement": "TGI", "setting": "RPMI-8226 leukemia", "result": "> 100", "unit": "µM"}, {"measurement": "TGI", "setting": "MOLT-4 leukemia", "result": 84.5, "unit": "µM"}, {"measurement": "TGI", "setting": "HCT-116 colon", "result": 25.9, "unit": "µM"}, {"measurement": "TGI", "setting": "UO-31 renal", "result": 35.8, "unit": "µM"}, {"measurement": "TGI", "setting": "ACHN renal", "result": 35.6, "unit": "µM"}, {"measurement": "TGI", "setting": "DLD-1 colon", "result": 30.6, "unit": "µM"}, {"measurement": "TGI", "setting": "HOP-92 NSCLC", "result": 29.9, "unit": "µM"}, {"measurement": "TGI", "setting": "TK-10 renal", "result": 30.5, "unit": "µM"}, {"measurement": "TGI", "setting": "SK-MEL-28 melanoma", "result": "> 100", "unit": "µM"}, {"measurement": "TGI", "setting": "LXFL 529 NSCLC", "result": 28.5, "unit": "µM"}, {"measurement": "TGI", "setting": "A549 NSCLC", "result": "> 100", "unit": "µM"}, {"measurement": "TGI", "setting": "SF-539 CNS", "result": 68.2, "unit": "µM"}, {"measurement": "TGI", "setting": "M14 melanoma", "result": 87.9, "unit": "µM"}, {"measurement": "TGI", "setting": "U251 CNS", "result": "> 100", "unit": "µM"}, {"measurement": "TGI", "setting": "KM12 colon", "result": "> 100", "unit": "µM"}, {"measurement": "TGI", "setting": "COLO 205 colon", "result": 30.2, "unit": "µM"}, {"measurement": "TGI", "setting": "OVCAR-5 ovarian", "result": "> 100", "unit": "µM"}, {"measurement": "TGI", "setting": "SK-MEL-2 melanoma", "result": "> 100", "unit": "µM"}, {"measurement": "TGI", "setting": "NCI-H522 lung", "result": 8.67, "unit": "µM"}, {"measurement": "TGI", "setting": "K-562 leukemia", "result": 51.1, "unit": "µM"}, {"measurement": "TGI", "setting": "HT29 colon", "result": 77.1, "unit": "µM"}, {"measurement": "TGI", "setting": "SNB-75 CNS", "result": "> 100", "unit": "µM"}, {"measurement": "TGI", "setting": "EKVX NSCLC", "result": 43.4, "unit": "µM"}, {"measurement": "TGI", "setting": "SF-295 CNS", "result": "> 100", "unit": "µM"}, {"measurement": "TGI", "setting": "HCC-2998 colon", "result": "> 100", "unit": "µM"}, {"measurement": "TGI", "setting": "HCT-15 colon", "result": 35.3, "unit": "µM"}, {"measurement": "TGI", "setting": "OVCAR-8 ovarian", "result": "> 100", "unit": "µM"}, {"measurement": "TGI", "setting": "MALME-3M melanoma", "result": 32.7, "unit": "µM"}, {"measurement": "TGI", "setting": "NCI-H460 lung", "result": "> 100", "unit": "µM"}, {"measurement": "TGI", "setting": "CCRF-CEM leukemia", "result": "> 100", "unit": "µM"}, {"measurement": "TGI", "setting": "M19-MEL melanoma", "result": 41.6, "unit": "µM"}, {"measurement": "TGI", "setting": "OVCAR-4 ovarian", "result": 29.8, "unit": "µM"}, {"measurement": "TGI", "setting": "SK-OV-3 ovarian", "result": "> 100", "unit": "µM"}, {"measurement": "TGI", "setting": "NCI-H226 lung", "result": 82.7, "unit": "µM"}, {"measurement": "TGI", "setting": "DMS 273 small cell lung", "result": "> 100", "unit": "µM"}, {"measurement": "TGI", "setting": "HL-60(TB) leukemia", "result": 31.4, "unit": "µM"}, {"measurement": "TGI", "setting": "SN12C renal", "result": "> 100", "unit": "µM"}, {"measurement": "TGI", "setting": "HOP-18 NSCLC", "result": 29.1, "unit": "µM"}, {"measurement": "TGI", "setting": "SNB-78 CNS", "result": "> 100", "unit": "µM"}, {"measurement": "TGI", "setting": "786-0 renal", "result": 28.5, "unit": "µM"}, {"measurement": "TGI", "setting": "OVCAR-3 ovarian", "result": 63.8, "unit": "µM"}]}]}
